The Kinase Knowledgebase extract (Sharma et al. 2016)
pIC50: −log10 of the molar value.

Legend:
MAPK14 (human) [1] = biological target: MAPK14 (human) (UniProt Q16539); assay: Inhibition of IL-1 Production in LPS Stimulated PBMC
MAPK14 (human) [2] = biological target: MAPK14 (human) (UniProt Q16539); assay: Inhibition of IL-1 Production in LPS Whole Blood Cells
MAPK14 (human) [3] = biological target: MAPK14 (human) (UniProt Q16539); assay: Inhibition of TNF-alpha Production in LPS Stimulated Whole Blood Cells
MAPK14 (human) [4] = biological target: MAPK14 (human) (UniProt Q16539); assay: Inhibition of IL-6 Production in Whole Blood Cells
MAPK14 (human) [5] = biological target: MAPK14 (human) (UniProt Q16539); assay: Inhibition of p38 Kinase Activity
MAPK14 (human) [6] = biological target: MAPK14 (human) (UniProt Q16539); assay: Inhibition of TNF-alpha Production in LPS Stimulated PBMC

Chain of MAPK14 (human) (Q16539 whole entry, looked up): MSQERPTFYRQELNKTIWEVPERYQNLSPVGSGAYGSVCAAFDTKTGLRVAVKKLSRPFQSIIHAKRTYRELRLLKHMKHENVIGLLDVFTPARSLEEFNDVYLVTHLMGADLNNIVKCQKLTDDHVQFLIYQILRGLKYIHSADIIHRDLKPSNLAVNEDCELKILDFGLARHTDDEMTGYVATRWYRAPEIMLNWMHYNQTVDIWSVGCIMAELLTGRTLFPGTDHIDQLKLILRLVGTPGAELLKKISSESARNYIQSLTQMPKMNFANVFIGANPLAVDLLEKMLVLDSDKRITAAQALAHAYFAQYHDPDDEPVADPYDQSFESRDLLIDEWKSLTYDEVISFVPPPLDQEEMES

pIC50 (MAPK14 (human) [1])	pIC50 (MAPK14 (human) [2])	pIC50 (MAPK14 (human) [3])	pIC50 (MAPK14 (human) [4])	pIC50 (MAPK14 (human) [5])	pIC50 (MAPK14 (human) [6])	SMILES
7.70	6.93	7.26	6.74	8.70	7.30	Cc1cc(F)ccc1-c1nc(N(C(N)=O)c2c(Cl)cccc2Cl)ccc1CO
7.57	7.24	7.05	7.12	7.57	8.00	Cc1cc(F)ccc1-c1nc(N(C(N)=O)c2c(F)cccc2F)ccc1CO
7.68	6.38	7.19	6.60	7.25	6.85	Cc1ccccc1-c1nc(N(C(N)=O)c2c(Cl)cccc2Cl)ccc1CO
